Source: paper PMC8348110, “A Novel Peptide Derived from the Transmembrane Domain of Romo1 Is a Promising Candidate for Sepsis Treatment and Multidrug-Resistant Bacteria” (International Journal of Molecular Sciences, 2021)
Values after ≈ are worked out from the molar mass of the structure shown. Residues, ends and D or L forms follow the SMILES beside them.

Columns and labels:
[1] = tested on: Pseudomonas aeruginosa ATCC 27853; assay type: cell-based; settings: ATCC 27853, 1 h
Method: (§1) The minimum bactericidal concentration (MBC) was determined as previously described with minor modifications. Briefly, bacteria were cultured in the mid-log phase and diluted to 5 × 10^5 colony-forming unit (CFU)/mL in 10 mM sodium phosphate buffer (pH 7.4) with a 1% volume of TS broth. They were incubated for 1 h with various peptides which were two-fold diluted serially from 64 μg/mL to 0 μg/mL concentrations in a 96-well plate. The samples were inoculated TS agar plate and incubated overnight at 37 °C. The value of MBC was determined at the lowest concentrations at which no colonies were identified.
(§2) We used the CFU counting method to measure antibacterial activity, with all bacteria cultured to the mid-log phase in an appropriate broth medium. Bacterial CFUs were counted after overnight culture at 37 °C on TS or LB agar plates. The MBC value and antibacterial activity in blood components were determined as previously described. Mouse and human whole blood were collected and diluted with PBS (pH 7.4) to measure the ex vivo antibacterial activity of AMPR-22. For that test, AMPR-22 (10 μg) was added to each whole blood solution and incubated at 37 °C with shaking at 200 rpm. At each time point, it was incubated with bacteria (1 × 10^3 CFU) for 30 min. Each sample was inoculated on an LB agar plate, and CFU counting was performed. To measure the in vivo activity of AMPR-22, 1 × 10^8 CFU of bacteria were injected into BALB/c mice, and an hour later, 10 mg/kg of the test peptides were injected. Blood samples were collected by tail cut, serially diluted with PBS (pH 7.4), and inoculated on LB-agar plates, followed by CFU counting. To estimate the functional half-life of AMPR-22, 40 mg/kg of each tested peptide were injected into mice. Whole blood sampling was performed by cardiac puncture, and the plasma was isolated by centrifugation (2000× g, 15 min). The isolated plasma was incubated with bacteria (1 × 10^3 CFU) for an hour, and then the CFU counting method was performed.

[2] = tested on: Staphylococcus aureus ATCC 29213; assay type: cell-based; settings: ATCC 29213, 1 h, pH 7.4
Method: as §1, §2

[3] = tested on: Methicillin-resistant S. aureus (MRSA) ATCC 33591; assay type: cell-based, Staphylococcus aureus; settings: ATCC 33591, 1 h
Method: as §1, §2

[4] = tested on: Carbapenem-resistant P. aeruginosa (CRPA), clinical isolate; assay type: cell-based, Pseudomonas aeruginosa; settings: 1 h
Excerpt: Acinetobacter baumannii (ATCC 19606), B. subtilis (ATCC 6633), E. aerogenes (ATCC 13048), E. coli (ATCC 25922), E. faecalis (ATCC 19433), E. faecium (ATCC 19434), K. pneumoniae (ATCC 13883), P. aeruginosa (ATCC 27853), S. aureus (ATCC 29213), S. sindenensis (ATCC 23963), and MRSA (ATCC 33591) were purchased from the American Type Culture Collection (ATCC; Gaithersburg, MD, USA). Streptococcus pneumoniae (NCCP 14585), vancomycin-resistant E. faecium (NCCP 11522), and vancomycin-resistant S. aureus (NCCP 15872) were purchased from the National Culture Collection for Pathogens (NCCP; Cheongju, Korea). The isolation and use of carbapenem-resistant bacterial strains from a patient were approved (2015AN0129) by the Institutional Review Board (IRB) of Korea University Hospital. CRPA, CRKP, and CRAB were clinically isolated in Korea University Hospital (Seoul, Korea). CRPA was confirmed to be resistant to piperacillin, piperacillin-tazobactam, ceftazidime, imipenem, meropenem, gentamicin, amikacin, and ciprofloxacin. CRAB was confirmed to be resistant to piperacillin, piperacillin-tazobactam, cefepime, ceftazidime, imipenem, meropenem, gentamicin, amikacin, and ciprofloxacin. CRKP was confirmed to be resistant to piperacillin-tazobactam, cefepime, ceftazidime, imipenem, gentamicin, and ciprofloxacin. All strains were stored at –80 °C in 50% glycerol and 50% Luria-Bertani (LB) or tryptic soy (TS) broth, grown on LB or TS plates, and aerated at 37 °C.
as §1, §2

| SMILES | MBC Value, P. aeruginosa [1] [µg/mL] | MBC Value, S. aureus [2] [µg/mL] | MBC Value, MRSA [3] [µg/mL] | MBC Value, CRPA [4] [µg/mL] |
| --- | --- | --- | --- | --- |
| CC[C@H](C)[C@H](NC(=O)CNC(=O)[C@H](CCSC)NC(=O)CNC(=O)[C@@H](NC(=O)[C@H](C)NC(=O)[C@H](CCSC)NC(=O)[C@H](Cc1ccccc1)NC(=O)[C@@H](NC(=O)CNC(=O)[C@H](Cc1ccccc1)NC(=O)[C@@H](NC(=O)CNC(=O)CNC(=O)[C@H](CO)NC(=O)[C@H](CCCCN)NC(=O)[C@H](CCSC)NC(=O)[C@H](CCSC)NC(=O)[C@H](CCCCN)NC(=O)[C@@H](N)CCCCN)[C@@H](C)O)[C@@H](C)O)[C@@H](C)CC)C(=O)N[C@@H](CCCNC(=N)N)C(=O)O [K2] (H-KKMMKSGGTFGTFMAIGMGIR-OH) | 16 (≈ 7.11 µM) | 32 (≈ 14.2 µM) | 64 (≈ 28.4 µM) | 16 (≈ 7.11 µM) |
| CC[C@H](C)[C@H](NC(=O)CNC(=O)[C@H](CCSC)NC(=O)CNC(=O)[C@@H](NC(=O)[C@H](C)NC(=O)[C@H](CCSC)NC(=O)[C@H](Cc1ccccc1)NC(=O)[C@@H](NC(=O)CNC(=O)[C@H](Cc1ccccc1)NC(=O)[C@@H](NC(=O)CNC(=O)CNC(=O)[C@H](CCCCN)NC(=O)[C@H](CCCCN)NC(=O)[C@H](CCSC)NC(=O)[C@H](CCSC)NC(=O)[C@H](CCCCN)NC(=O)[C@@H](N)CCCCN)[C@@H](C)O)[C@@H](C)O)[C@@H](C)CC)C(=O)N[C@@H](CCCNC(=N)N)C(=O)O [K3] (H-KKMMKKGGTFGTFMAIGMGIR-OH) | 8 (≈ 3.49 µM) | 16 (≈ 6.98 µM) | 32 (≈ 14 µM) | 8 (≈ 3.49 µM) |
| CC[C@H](C)[C@H](NC(=O)CNC(=O)[C@H](CCSC)NC(=O)CNC(=O)[C@@H](NC(=O)[C@H](C)NC(=O)[C@H](CCSC)NC(=O)[C@H](Cc1ccccc1)NC(=O)[C@@H](NC(=O)CNC(=O)[C@H](Cc1ccccc1)NC(=O)[C@H](CCCCN)NC(=O)CNC(=O)CNC(=O)[C@H](CCCCN)NC(=O)[C@H](CCCCN)NC(=O)[C@H](CCSC)NC(=O)[C@H](CCSC)NC(=O)[C@@H](N)CCCCN)[C@@H](C)O)[C@@H](C)CC)C(=O)N[C@@H](CCCNC(=N)N)C(=O)O [d58K] (H-KMMKKGGKFGTFMAIGMGIR-OH) | 2 (≈ 0.913 µM) | 8 (≈ 3.65 µM) | 2 (≈ 0.913 µM) | 8 (≈ 3.65 µM) |
| CC[C@H](C)[C@H](NC(=O)CNC(=O)[C@H](CCSC)NC(=O)CNC(=O)[C@@H](NC(=O)[C@H](C)NC(=O)[C@H](CCSC)NC(=O)[C@H](Cc1ccccc1)NC(=O)[C@@H](NC(=O)CNC(=O)[C@H](Cc1ccccc1)NC(=O)[C@H](CCCCN)NC(=O)CNC(=O)CNC(=O)[C@H](CCCCN)NC(=O)[C@H](CCCCN)NC(=O)[C@H](CCSC)NC(=O)[C@H](CCCCN)NC(=O)[C@@H](N)CCCCN)[C@@H](C)O)[C@@H](C)CC)C(=O)N[C@@H](CCCNC(=N)N)C(=O)O [d60M] (H-KKMKKGGKFGTFMAIGMGIR-OH) | 2 (≈ 0.915 µM) | 4 (≈ 1.83 µM) | 1 (≈ 0.457 µM) | 4 (≈ 1.83 µM) |
| CC[C@H](C)[C@H](NC(=O)CNC(=O)[C@H](CCSC)NC(=O)CNC(=O)[C@@H](NC(=O)[C@H](C)NC(=O)[C@H](CCSC)NC(=O)[C@H](Cc1ccccc1)NC(=O)[C@@H](NC(=O)CNC(=O)[C@H](Cc1ccccc1)NC(=O)[C@H](CCCCN)NC(=O)CNC(=O)CNC(=O)[C@H](CCCCN)NC(=O)[C@H](CCSC)NC(=O)[C@H](CCSC)NC(=O)[C@H](CCCCN)NC(=O)[C@@H](N)CCCCN)[C@@H](C)O)[C@@H](C)CC)C(=O)N[C@@H](CCCNC(=N)N)C(=O)O [d62K] (H-KKMMKGGKFGTFMAIGMGIR-OH) | 2 (≈ 0.913 µM) | 8 (≈ 3.65 µM) | 8 (≈ 3.65 µM) | 8 (≈ 3.65 µM) |
| CC[C@H](C)[C@H](NC(=O)CNC(=O)[C@H](CCSC)NC(=O)CNC(=O)[C@@H](NC(=O)[C@H](C)NC(=O)[C@H](CCSC)NC(=O)[C@H](Cc1ccccc1)NC(=O)[C@@H](NC(=O)CNC(=O)[C@H](Cc1ccccc1)NC(=O)[C@H](CCCCN)NC(=O)CNC(=O)[C@H](CCCCN)NC(=O)[C@H](CCCCN)NC(=O)[C@H](CCSC)NC(=O)[C@H](CCSC)NC(=O)[C@H](CCCCN)NC(=O)[C@@H](N)CCCCN)[C@@H](C)O)[C@@H](C)CC)C(=O)N[C@@H](CCCNC(=N)N)C(=O)O [d64G] (H-KKMMKKGKFGTFMAIGMGIR-OH) | 2 (≈ 0.885 µM) | 2 (≈ 0.885 µM) | 1 (≈ 0.442 µM) | 4 (≈ 1.77 µM) |
| CC[C@H](C)[C@H](NC(=O)CNC(=O)[C@H](CCSC)NC(=O)CNC(=O)[C@@H](NC(=O)[C@H](C)NC(=O)[C@H](CCSC)NC(=O)[C@H](Cc1ccccc1)NC(=O)[C@@H](NC(=O)CNC(=O)[C@H](Cc1ccccc1)NC(=O)CNC(=O)CNC(=O)[C@H](CCCCN)NC(=O)[C@H](CCCCN)NC(=O)[C@H](CCSC)NC(=O)[C@H](CCSC)NC(=O)[C@H](CCCCN)NC(=O)[C@@H](N)CCCCN)[C@@H](C)O)[C@@H](C)CC)C(=O)N[C@@H](CCCNC(=N)N)C(=O)O [d66K] (H-KKMMKKGGFGTFMAIGMGIR-OH) | 4 (≈ 1.83 µM) | 8 (≈ 3.65 µM) | 4 (≈ 1.83 µM) | 4 (≈ 1.83 µM) |
| CC[C@H](C)[C@H](NC(=O)CNC(=O)[C@H](CCSC)NC(=O)CNC(=O)[C@@H](NC(=O)[C@H](C)NC(=O)[C@H](CCSC)NC(=O)[C@H](Cc1ccccc1)NC(=O)[C@@H](NC(=O)CNC(=O)[C@H](CCCCN)NC(=O)CNC(=O)CNC(=O)[C@H](CCCCN)NC(=O)[C@H](CCCCN)NC(=O)[C@H](CCSC)NC(=O)[C@H](CCSC)NC(=O)[C@H](CCCCN)NC(=O)[C@@H](N)CCCCN)[C@@H](C)O)[C@@H](C)CC)C(=O)N[C@@H](CCCNC(=N)N)C(=O)O [d67F] (H-KKMMKKGGKGTFMAIGMGIR-OH) | 4 (≈ 1.84 µM) | 8 (≈ 3.69 µM) | 4 (≈ 1.84 µM) | 8 (≈ 3.69 µM) |
| CC[C@H](C)[C@H](NC(=O)CNC(=O)[C@H](CCSC)NC(=O)CNC(=O)[C@@H](NC(=O)[C@H](C)NC(=O)[C@H](CCSC)NC(=O)[C@@H](NC(=O)CNC(=O)[C@H](Cc1ccccc1)NC(=O)[C@H](CCCCN)NC(=O)CNC(=O)CNC(=O)[C@H](CCCCN)NC(=O)[C@H](CCCCN)NC(=O)[C@H](CCSC)NC(=O)[C@H](CCSC)NC(=O)[C@H](CCCCN)NC(=O)[C@@H](N)CCCCN)[C@@H](C)O)[C@@H](C)CC)C(=O)N[C@@H](CCCNC(=N)N)C(=O)O [d70F] (H-KKMMKKGGKFGTMAIGMGIR-OH) | 128 (≈ 59 µM) | – | 128 (≈ 59 µM) | >256 |
| CC[C@H](C)[C@H](NC(=O)CNC(=O)[C@H](CCSC)NC(=O)CNC(=O)[C@H](C)NC(=O)[C@H](CCSC)NC(=O)[C@H](Cc1ccccc1)NC(=O)[C@@H](NC(=O)CNC(=O)[C@H](Cc1ccccc1)NC(=O)[C@H](CCCCN)NC(=O)CNC(=O)CNC(=O)[C@H](CCCCN)NC(=O)[C@H](CCCCN)NC(=O)[C@H](CCSC)NC(=O)[C@H](CCSC)NC(=O)[C@H](CCCCN)NC(=O)[C@@H](N)CCCCN)[C@@H](C)O)C(=O)N[C@@H](CCCNC(=N)N)C(=O)O [d73I] (H-KKMMKKGGKFGTFMAGMGIR-OH) | >256 | – | >256 | >256 |
